Laboratory results reported in US11191811B2, “Osteocalcin as a treatment for frailty associated with aging” (THE TRUSTEES OF COLUMBIA UNIVERSITY IN THE CITY OF NEW YORK, priority 2014, dated 2021).

Columns and labels:
mice = assay: Mouse asthma model (albumin sensitisation, nebulized albumin); format: in vivo; settings: osteocalcin given by nebulization together with the nebulized albumin
From the text: In a mouse asthma model that involves intraperitoneal injection of albumin (to sensitize the mice) followed a week later by nebulized administration of albumin to the lungs of the mice, osteocalcin given by nebulization together with the nebulized albumin prevented the bronchoconstriction that would have otherwise been observed.

WT myotubes [1] = assay: 3H-2-deoxyglucose uptake in myotubes; format: cell-based, mouse
Experimental: (§1) The main nutrient used by muscle to generate energy at the onset of exercise is glucose and osteocalcin increased the uptake of ^3H-2-deoxyglucose (^3H-2DG) in WT but not in Gprc6a−/− myotubes (FIG. 26D-E). To exclude the involvement of other secreted molecules, this experiment was performed in serum-free conditions. […] This decrease in glucose uptake in muscles of Gprc6aMck−/− mice provides an explanation for why blood glucose levels were two-fold higher in Gprc6aMck−/− and Gprc6aHsa−/− than in control mice after exercise (FIG. 26G-H).
(§2) Glucose and insulin tolerance tests were performed as previously described (Lee et al., 2007, Cell 130:456-469). For in vivo glucose uptake, a bolus of 2-deoxy-d-[^3H]glucose (^3H-2-DG, Perkin Elmer) (10 μCi) was administered before an endurance run. ^3H-2-DG and ^3H-2-DG-6-P content in muscle was determined by liquid scintillation counter and normalized to muscle weight. Glucose uptake and fatty acid oxidation assays in myotubes were performed as previously described (Sebastian et al., 2007, Am. J. Physiol. Endocrinol. Metab. 292:E667-686). GLUT4 translocation was determined by flow cytometry using an antibody against the extracellular domain of the GLUT4 protein (Santa Cruz, Sc-1606). Measurements of oxygen consumption rates (OCR) in isolated myofibers were performed using a XF24 Seahorse Analyzer® (Seahorse Biosciences). To analyze mitochondrial function, myofibers were treated with three compounds in succession (oligomycin 10 μg/ml, FCCP 200 μM, rotenone 0.2 μM) and OCR was recorded following administration of each of them.
(§3) Culture of skeletal muscle myoblasts from 7 day-old mice was performed as described (Gharaibeh et al., 2008, Nature Protocols 3:1501-1509). Myoblasts were differentiated into myotubes for 3-4 days in a medium containing 5% horse serum. Muscle fibers were isolated from flexor digitorum brevis muscle. Muscles were dissected with DMEM 2% collagenase for 2 hours at 37° C., in a 5% CO2 incubator. […]

Gprc6a−/− myotubes = assay: 3H-2-deoxyglucose uptake in myotubes; format: cell-based, mouse; settings: serum-free conditions
Experimental: as §1, §2, §3

Gprc6aMck−/− mice = assay: Endurance exercise on treadmill until exhaustion; format: in vivo, mouse; settings: Gprc6aMck−/− mice treated with Ocn
Experimental: First, whether a single intraperitoneal injection of uncarboxylated mouse osteocalcin (osteocalcin) (100 ng/g of body weight) immediately before exercise would improve the exercise capacity of 3 month-old WT mice was tested.
For exercise studies, all mice were trained before the tests to run on a treadmill (Harvard apparatus) for three days (10 minutes/day). The day of the test, mice were acclimated to the treadmill for 5 minutes followed by 10 minutes running at a constant speed of 17 cm/s, then a gradual increase in the speed up to 30 cm/s. Next, mice were run until exhaustion as defined by the number of times a mouse fell off to the electric grid during one minute (>15). Measurements of muscle strength were carried out using a grip strength meter (Columbus instruments). Values are expressed as the average of five single measurements, taken one minute apart from each other. For all biochemical and metabolic analyses performed, blood/tissues were collected and processed either at rest or at the end of a 40 min run (30 cm/s).

WT myotubes [2] = assay: Gene expression (qPCR) in myotubes treated with Ocn; format: cell-based, mouse
Experimental: FIG. 28. Osteocalcin signaling in myofibers favors uptake and oxidation of fatty acids. (A-B) Acylcarnitine levels in muscles and plasma of Gprc6af/f and Gprc6aMck−/− mice, at rest and after a single bout of exercise (n=4-6 per group). (C) OCR in myofibers cultured in KHR buffer containing 3 mM oleic acid. (D) ATP accumulations in muscles of Gprc6af/f and Gprc6aMck−/− mice after a single bout of exercise (n=6 per group). (E) Western blot analysis of HSL phosphorylation (Ser563) in muscles of Gprc6af/f and Gprc6aMck−/− mice after a single bout of exercise. (F-G) Cd36, Fatp1 and Cpt1b expression in WT and Gprc6a−/− myotubes or WT myotubes treated with Ocn (10 ng/ml). (H) Fatp1 expression in muscles of Gprc6af/f; Gprc6aMck−/− and Ocn+/−; Gprc6aMck+/− mice, at rest and after a single bout of exercise (n=4-6 per group). (I) Western blot analysis of FATP1 in muscle of Gprc6af/f and Gprc6aMck−/− mice after exercise. (J) Cd36, Fatp1 and Cpt1b expression in muscles of Creb f/f and CrebMck−/− mice after a single bout of exercise. (K) Western blot analysis of CREB phosphorylation (Ser133) in muscles of Gprc6af/f and Gprc6aMck−/− mice after a single bout of exercise. (L) Performance during endurance exercise of 3 month-old Gprc6aMck+/−; CrebMck+/−, CrebMck+/− and control mice (n=8-13 per group).
Serum osteocalcin, PINP, CTX, and insulin levels were measured using ELISA assays. Blood glucose level was measured using an Accu-Check glucometer. Urine 3-MHT was measured as previously described (Aranibar et al., 2011, Anal. Biochem. 410:84-91). Determination of cAMP accumulation was performed using a commercial kit (R&D). For gene expression, 1 μg of total RNA was reverse transcribed into cDNA. qPCR analyses were performed using a SYBER green master mix (Applied Biosciences) and a CFX-Connect real time PCR (Bio-Rad). Relative expression levels of each gene were normalized to that of Hprt or Gapdh. For in situ hybridization, muscle was frozen in liquid N2-cooled methylbutane. Samples were sectioned at 10 μm using a cryostat. […]

uncarboxylated osteocalcin: Recombinant uncarboxylated mouse osteocalcin, bacterially produced, purified on glutathione beads and cleaved from the GST subunit by thrombin (YLGASVPSPDPLEPTREQCELNPACDELSDQYGLKTAYKRIYGITI)
bronchoconstriction (mice): prevented | uptake of 3H-2-deoxyglucose (3H-2DG) (WT myotubes [1]; WT myotubes, serum-free conditions): increased | glucose uptake (WT myotubes [1]; as worded in FIG. 19 (wild-type) and summary (in muscle)): favors | uptake of 3H-2-deoxyglucose (3H-2DG) (Gprc6a−/− myotubes): not | muscle function (Gprc6aMck−/− mice): did not improve | expression of Il6 (WT myotubes [2]): increased | expression of Cpt1b (WT myotubes [2]; Ocn 10 ng/ml): increased | expression of Fatp1 (WT myotubes [2]; Ocn 10 ng/ml): increased
